How the values were obtained:
[1] = organism: Homo sapiens; test: Activation of HDAC deacetylation activity in human HeLa nuclear extract at 50 uM using AMC less CH3CONH-RH-(Nepsilon-acetyl-lysine)-(Nepsilon-acetyl-lysine)-CONH2 as substrate measured after 10 mins by reverse phase HPLC method relative to control
[2] = molecular target: T1, Histone deacetylase 8 (Homo sapiens) (UniProt Q9BY41); test: Activation of human HDAC8 deacetylation activity at 50 uM using AMC less CH3CONH-FG-(Nepsilon-acetyl-lysine)-FSW-CONH2 as substrate measured after 10 mins by reverse phase HPLC method relative to control
T1 sequence (whole entry): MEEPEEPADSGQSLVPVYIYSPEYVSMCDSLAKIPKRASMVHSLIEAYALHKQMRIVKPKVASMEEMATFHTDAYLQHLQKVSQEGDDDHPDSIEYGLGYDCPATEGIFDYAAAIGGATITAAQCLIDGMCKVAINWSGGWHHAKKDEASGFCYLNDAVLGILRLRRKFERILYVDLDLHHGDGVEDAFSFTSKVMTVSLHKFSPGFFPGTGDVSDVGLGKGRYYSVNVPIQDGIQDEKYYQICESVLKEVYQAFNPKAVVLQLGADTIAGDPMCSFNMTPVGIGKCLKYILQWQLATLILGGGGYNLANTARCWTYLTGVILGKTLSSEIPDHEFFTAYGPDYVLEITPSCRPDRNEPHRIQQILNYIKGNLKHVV

[3] = molecular target: T1, Histone deacetylase 8 (Homo sapiens); test: Activation of human HDAC8 deacetylation activity at 50 uM using AMC-Fluor-de-Lys-HDAC8 as substrate measured after 10 mins by reverse phase HPLC method relative to control
[4] = organism: Homo sapiens; test: Activation of HDAC deacetylation activity in human HeLa nuclear extract at 50 uM using AMC-Fluor-de-Lys-HDAC8 as substrate measured after 5 mins by reverse phase HPLC method relative to control
[5] = molecular target: T1, Histone deacetylase 8 (Homo sapiens); test: Activation of human HDAC8 deacetylation activity assessed as ratio of Kcat to Km for substrate at 50 uM using AMC less CH3CONH-FG-(Nepsilon-acetyl-lysine)-FSW-CONH2 as substrate measured after 1.5 mins by reverse phase HPLC method relative to control
[6] = molecular target: T1, Histone deacetylase 8 (Homo sapiens); test: Activation of human HDAC8 deacetylation activity assessed as reduction in substrate Km at 50 uM using AMC less CH3CONH-FG-(Nepsilon-acetyl-lysine)-FSW-CONH2 as substrate measured after 1.5 mins by reverse phase HPLC method relative to control
[7] = molecular target: T1, Histone deacetylase 8 (Homo sapiens); test: Activation of human HDAC8 deacetylation activity assessed as reduction in substrate Kcat at 50 uM using AMC-Fluor-de-Lys-HDAC8 as substrate measured after 1.5 mins by reverse phase HPLC method relative to control
[8] = molecular target: T1, Histone deacetylase 8 (Homo sapiens); test: Activation of human HDAC8 deacetylation activity assessed as decrease in substrate Kcat at 50 uM using AMC less CH3CONH-FG-(Nepsilon-acetyl-lysine)-FSW-CONH2 as substrate measured after 1.5 mins by reverse phase HPLC method relative to control; set-up: scale not given: the % may be the effect or the level left
[9] = molecular target: T1, Histone deacetylase 8 (Homo sapiens); test: Activation of human HDAC8 deacetylation activity assessed as ratio of Kcat to Km for substrate at 50 uM using AMC-Fluor-de-Lys-HDAC8 as substrate measured after 1.5 mins by reverse phase HPLC method relative to control
[10] = molecular target: T1, Histone deacetylase 8 (Homo sapiens); test: Activation of human HDAC8 deacetylation activity assessed as reduction in substrate Km at 50 uM using AMC-Fluor-de-Lys-HDAC8 as substrate measured after 1.5 mins by reverse phase HPLC method relative to control

Structure (SMILES) | fold change (FC) [1] | fold change (FC) [2] | fold change (FC) [3] | fold change (FC) [4] | fold change (FC) [5] | fold change (FC) [6] | fold change (FC) [7] | Activity [8] [%] | fold change (FC) [9] | fold change (FC) [10]
CC(=O)Nc1ccccc1C(F)(F)F | 1.45 | 1.5 | 1.2 | 0.98 | – | – | – | – | – | –
CC(=O)Nc1cccc(C(F)(F)F)c1 | 0.81 | 1.3 | 1.7 | 0.89 | – | – | – | – | – | –
O=C(NC(=S)Nc1ccccc1)c1ccccc1 | 0.58 | 0.5 | 2.2 | 0.69 | – | – | – | – | – | –
O=C(Nc1cccc(C(F)(F)F)c1)C(F)(F)F | 0.54 | 2.7 | 1.7 | 0.96 | – | – | – | – | – | –
CC(=O)Nc1ccc(C(F)(F)F)cc1 | 0.83 | 1.4 | 1.7 | 0.93 | – | – | – | – | – | –
CC(C)(C)OC(=O)N[C@@H](CCCCNC(=O)CBr)C(=O)Nc1ccccc1 | 1.22 | 5.6 | 2.8 | 1.09 | 2.6 | 3.6 | 13 | < 40 | 3.7 | 3.5
O=C(Nc1ccccc1C(F)(F)F)C(F)(F)F | 1.22 | 1.2 | 1.4 | 0.87 | – | – | – | – | – | –
O=C(Nc1ccc(C(F)(F)F)cc1)C(F)(F)F | 0.64 | 1.4 | 1.1 | 0.93 | – | – | – | – | – | –
